Data published in patent US20120270237A9, “METHODS FOR THE IDENTIFICATION OF KINASE INTERACTING MOLECULES AND FOR THE PURIFICATION OF KINASE PROTEINS” (Cellzone AG, priority 2009, published 2012).

Key:
Test in all cases: Kinobeads competition binding, HeLa Placenta lysate mix
Settings in all cases: 10 μM free compound
ARG = ARG (Homo sapiens, UniProt P42684); design: capturing and identification of kinases from mixed HeLa placenta lysates; endogenous in cells; host or cells: mix of HeLa cell lysate and placenta tissue lysate
Method: (§1) To one aliquot of cell lysate 10 μM of the free compound (FIG. 3, CZC31326) was added and allowed to bind to proteins in the lysate. Then the affinity matrix with the immobilized compound was added to capture proteins that were not interacting with the previously added free compound. Beads were separated from the lysate and bead bound proteins were eluted in SDS sample buffer and subsequently separated by SDS-Polyacrylamide gel electrophoresis (FIG. 10). Suitable gel bands were cut out and subjected to in-gel proteolytic digestion with trypsin. The second lysate aliquot was processed identically, however no free compound was added (DMSO solvent control). Peptides originating from samples 1 and 2 were labeled with iTRAQ reagents (iTRAQ 114 and iTRAQ 117) and the combined samples were analyzed with a nano-flow liquid chromatography system coupled online to a tandem mass spectrometer (LC-MS/MS) experiment followed by iTRAQ reporter ion quantification in the MS/MS spectra as described in Example 2.

CDK9 = CDK9 (Homo sapiens, UniProt P50750); design: capturing and identification of kinases from mixed HeLa placenta lysates; endogenous in cells; host or cells: mix of HeLa cell lysate and placenta tissue lysate
Method: as §1

FES = FES (Homo sapiens, UniProt P07332); design: capturing and identification of kinases from mixed HeLa placenta lysates; endogenous in cells; host or cells: mixed lysate of HeLa cells and placenta tissue
Method: as §1

GCK = target: T1, GCK (Homo sapiens, UniProt Q12851); design: capturing and identification of kinases from mixed HeLa placenta lysates; endogenous in cells; host or cells: mixed lysate of HeLa cells and placenta tissue
T1 sequence (Q12851 1-820): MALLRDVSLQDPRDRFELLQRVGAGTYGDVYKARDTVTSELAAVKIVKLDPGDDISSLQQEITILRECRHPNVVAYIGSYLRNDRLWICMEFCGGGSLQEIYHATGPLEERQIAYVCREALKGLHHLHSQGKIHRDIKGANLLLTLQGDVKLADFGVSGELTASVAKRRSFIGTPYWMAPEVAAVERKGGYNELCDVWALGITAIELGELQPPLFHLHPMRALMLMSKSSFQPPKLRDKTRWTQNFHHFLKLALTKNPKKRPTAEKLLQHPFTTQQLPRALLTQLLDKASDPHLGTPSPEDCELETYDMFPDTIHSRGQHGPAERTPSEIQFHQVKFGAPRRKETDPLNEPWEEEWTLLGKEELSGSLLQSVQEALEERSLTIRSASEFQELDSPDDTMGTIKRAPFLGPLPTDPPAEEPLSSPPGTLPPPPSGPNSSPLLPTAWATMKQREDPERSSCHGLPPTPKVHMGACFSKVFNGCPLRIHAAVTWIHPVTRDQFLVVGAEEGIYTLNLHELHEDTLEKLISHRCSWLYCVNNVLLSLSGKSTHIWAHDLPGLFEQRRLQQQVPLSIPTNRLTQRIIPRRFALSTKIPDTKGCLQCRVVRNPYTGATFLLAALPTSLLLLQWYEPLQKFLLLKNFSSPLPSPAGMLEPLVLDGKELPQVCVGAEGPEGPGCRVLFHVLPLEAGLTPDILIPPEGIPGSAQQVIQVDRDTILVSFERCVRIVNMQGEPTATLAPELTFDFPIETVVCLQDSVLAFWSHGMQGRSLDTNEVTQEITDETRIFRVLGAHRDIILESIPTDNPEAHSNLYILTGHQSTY
Method: as §1

MAP2K5 = target: T2, MAP2K5 (Homo sapiens, UniProt Q13163); design: capturing and identification of kinases from mixed HeLa placenta lysates; endogenous in cells; host or cells: mixed lysate of HeLa cells and placenta tissue
T2 sequence (Q13163 1-448): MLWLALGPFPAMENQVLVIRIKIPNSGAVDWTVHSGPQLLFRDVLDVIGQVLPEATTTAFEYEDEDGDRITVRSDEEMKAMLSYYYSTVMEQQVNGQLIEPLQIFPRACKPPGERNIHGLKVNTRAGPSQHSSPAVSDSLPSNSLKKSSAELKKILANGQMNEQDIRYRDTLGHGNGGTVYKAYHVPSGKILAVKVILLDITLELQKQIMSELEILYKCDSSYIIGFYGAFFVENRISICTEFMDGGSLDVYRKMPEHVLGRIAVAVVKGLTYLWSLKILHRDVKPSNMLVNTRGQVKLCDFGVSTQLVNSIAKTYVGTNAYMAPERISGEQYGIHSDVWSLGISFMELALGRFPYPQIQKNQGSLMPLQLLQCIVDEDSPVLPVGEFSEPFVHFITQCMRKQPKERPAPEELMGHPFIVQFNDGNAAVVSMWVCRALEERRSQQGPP
Method: as §1

MARK3 = MARK3 (Homo sapiens, UniProt P27448); design: capturing and identification of kinases from mixed HeLa placenta lysates; endogenous in cells; host or cells: mixed lysate of HeLa cells and placenta tissue
Method: as §1

CDK9, sequence (P50750 whole entry): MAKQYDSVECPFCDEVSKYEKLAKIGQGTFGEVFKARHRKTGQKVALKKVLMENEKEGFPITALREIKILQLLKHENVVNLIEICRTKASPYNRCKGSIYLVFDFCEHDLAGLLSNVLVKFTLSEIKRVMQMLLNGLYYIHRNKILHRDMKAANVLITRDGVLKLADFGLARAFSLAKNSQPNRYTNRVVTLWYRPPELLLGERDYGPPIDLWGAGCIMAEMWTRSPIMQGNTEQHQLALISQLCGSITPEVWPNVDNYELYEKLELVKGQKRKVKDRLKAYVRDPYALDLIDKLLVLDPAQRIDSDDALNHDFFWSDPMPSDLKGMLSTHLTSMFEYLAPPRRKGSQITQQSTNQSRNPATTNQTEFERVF
FES, sequence (P07332 whole entry): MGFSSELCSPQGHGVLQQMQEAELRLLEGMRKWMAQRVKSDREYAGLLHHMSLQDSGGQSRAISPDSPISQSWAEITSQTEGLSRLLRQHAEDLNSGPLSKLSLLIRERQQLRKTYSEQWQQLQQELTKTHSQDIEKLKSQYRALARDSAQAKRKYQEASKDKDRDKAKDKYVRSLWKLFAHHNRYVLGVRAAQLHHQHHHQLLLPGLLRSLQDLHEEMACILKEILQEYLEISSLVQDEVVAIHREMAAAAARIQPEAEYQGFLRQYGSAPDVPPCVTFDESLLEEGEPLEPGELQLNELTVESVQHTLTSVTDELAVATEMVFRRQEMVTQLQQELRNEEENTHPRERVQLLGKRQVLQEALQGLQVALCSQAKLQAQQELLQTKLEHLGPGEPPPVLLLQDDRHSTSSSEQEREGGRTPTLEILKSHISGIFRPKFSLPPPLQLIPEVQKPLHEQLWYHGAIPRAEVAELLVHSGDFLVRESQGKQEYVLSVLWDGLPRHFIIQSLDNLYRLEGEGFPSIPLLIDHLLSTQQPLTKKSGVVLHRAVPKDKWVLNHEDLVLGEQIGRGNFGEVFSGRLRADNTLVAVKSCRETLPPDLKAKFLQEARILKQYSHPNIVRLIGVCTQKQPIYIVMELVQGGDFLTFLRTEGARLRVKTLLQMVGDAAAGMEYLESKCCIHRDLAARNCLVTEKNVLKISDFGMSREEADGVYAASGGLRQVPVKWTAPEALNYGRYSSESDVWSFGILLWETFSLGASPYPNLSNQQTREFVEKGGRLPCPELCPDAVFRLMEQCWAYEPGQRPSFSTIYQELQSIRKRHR
MARK3, sequence (P27448 whole entry): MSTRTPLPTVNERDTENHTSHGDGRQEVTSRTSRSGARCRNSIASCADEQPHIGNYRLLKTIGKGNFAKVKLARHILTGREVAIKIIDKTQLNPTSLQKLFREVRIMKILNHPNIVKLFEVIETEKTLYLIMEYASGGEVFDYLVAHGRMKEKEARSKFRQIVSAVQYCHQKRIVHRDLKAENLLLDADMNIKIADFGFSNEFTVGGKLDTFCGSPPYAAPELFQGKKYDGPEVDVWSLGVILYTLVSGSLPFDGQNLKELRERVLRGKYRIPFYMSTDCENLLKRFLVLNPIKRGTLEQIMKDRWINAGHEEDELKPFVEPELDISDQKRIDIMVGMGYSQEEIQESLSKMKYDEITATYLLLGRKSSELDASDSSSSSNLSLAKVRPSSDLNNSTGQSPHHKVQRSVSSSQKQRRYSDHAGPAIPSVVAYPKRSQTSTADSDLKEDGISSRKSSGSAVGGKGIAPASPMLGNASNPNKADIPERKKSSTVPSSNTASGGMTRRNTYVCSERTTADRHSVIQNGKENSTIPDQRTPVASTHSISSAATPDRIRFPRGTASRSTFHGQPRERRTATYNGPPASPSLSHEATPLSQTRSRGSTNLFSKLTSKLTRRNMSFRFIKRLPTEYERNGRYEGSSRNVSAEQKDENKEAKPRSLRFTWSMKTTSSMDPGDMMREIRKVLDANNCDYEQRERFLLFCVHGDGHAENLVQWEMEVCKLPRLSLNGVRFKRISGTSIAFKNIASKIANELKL
ARG, sequence (P42684 whole entry): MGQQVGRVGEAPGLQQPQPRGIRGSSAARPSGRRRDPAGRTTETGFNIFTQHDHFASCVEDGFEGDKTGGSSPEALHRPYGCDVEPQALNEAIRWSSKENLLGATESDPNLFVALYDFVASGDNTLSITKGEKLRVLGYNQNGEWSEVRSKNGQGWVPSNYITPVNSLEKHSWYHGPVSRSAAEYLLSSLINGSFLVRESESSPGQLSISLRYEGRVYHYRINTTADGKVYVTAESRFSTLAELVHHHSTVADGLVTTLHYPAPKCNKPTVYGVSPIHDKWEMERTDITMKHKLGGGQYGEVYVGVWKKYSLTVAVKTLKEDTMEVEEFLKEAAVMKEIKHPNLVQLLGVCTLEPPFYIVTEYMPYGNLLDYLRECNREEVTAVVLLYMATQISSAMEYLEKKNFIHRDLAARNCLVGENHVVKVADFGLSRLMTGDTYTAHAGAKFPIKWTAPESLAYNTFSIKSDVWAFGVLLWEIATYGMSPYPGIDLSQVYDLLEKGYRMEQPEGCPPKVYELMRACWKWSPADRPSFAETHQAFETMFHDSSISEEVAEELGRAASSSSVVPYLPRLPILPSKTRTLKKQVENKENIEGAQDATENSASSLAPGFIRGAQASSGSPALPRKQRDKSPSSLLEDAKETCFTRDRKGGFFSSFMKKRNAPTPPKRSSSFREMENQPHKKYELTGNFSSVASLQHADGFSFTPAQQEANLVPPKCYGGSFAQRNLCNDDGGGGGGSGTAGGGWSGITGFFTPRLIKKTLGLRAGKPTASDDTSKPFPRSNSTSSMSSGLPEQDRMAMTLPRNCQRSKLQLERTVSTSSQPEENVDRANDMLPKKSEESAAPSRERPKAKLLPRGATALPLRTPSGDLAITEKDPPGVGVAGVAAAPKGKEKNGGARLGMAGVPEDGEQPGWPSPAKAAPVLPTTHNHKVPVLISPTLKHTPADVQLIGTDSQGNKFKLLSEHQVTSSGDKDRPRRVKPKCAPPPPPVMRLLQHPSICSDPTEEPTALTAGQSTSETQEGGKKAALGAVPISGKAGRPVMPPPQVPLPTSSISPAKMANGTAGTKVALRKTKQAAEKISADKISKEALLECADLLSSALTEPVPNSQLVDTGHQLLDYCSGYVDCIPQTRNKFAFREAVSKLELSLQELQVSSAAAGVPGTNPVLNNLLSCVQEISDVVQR

inhibition at 10 µM (ARG): 91.2%
inhibition at 10 µM (CDK9): 95.3%
inhibition at 10 µM (FES): 95.1%
inhibition at 10 µM (GCK): 93.8%
inhibition at 10 µM (MAP2K5): 90.4%
inhibition at 10 µM (MARK3): 93.1%
SMILES: CS(=O)(=O)Nc1ccccc1Nc1nc(Nc2cccc(OCCN)c2)ncc1Cl [CZC31326, N-(2-(2-(3-(2-aminoethoxy)phenylamino)-5-chloropyrimidin-4-ylamino)phenyl)methanesulfonamide]
